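Briefly, cells in 96-well plates were exposed to five compound concentrations for 48 h, and endpoints were estimated by linear interpolation. At the TGI there is no net growth.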
Columns and labels:
Test in all cases: NCI anticancer screen, dose series, 48 h
DLD-1 colon = tested on: DLD-1 colon
DMS 114 small cell lung = tested on: DMS 114 small cell lung
DMS 273 small cell lung = tested on: DMS 273 small cell lung
EKVX NSCLC = tested on: EKVX NSCLC
HOP-62 NSCLC = tested on: HOP-62 NSCLC
KM12 colon = tested on: KM12 colon
KM20L2 colon = tested on: KM20L2 colon
LOX IMVI melanoma = tested on: LOX IMVI melanoma
LXFL 529 NSCLC = tested on: LXFL 529 NSCLC
M19-MEL melanoma = tested on: M19-MEL melanoma
OVCAR-5 ovarian = tested on: OVCAR-5 ovarian
RPMI-8226 leukemia = tested on: RPMI-8226 leukemia
SF-539 CNS = tested on: SF-539 CNS
TK-10 renal = tested on: TK-10 renal
U251 CNS = tested on: U251 CNS
UACC-257 melanoma = tested on: UACC-257 melanoma
XF 498 CNS = tested on: XF 498 CNS

Row | SMILES | TGI (DLD-1 colon) | TGI (DMS 114 small cell lung) | TGI (DMS 273 small cell lung) | TGI (EKVX NSCLC) | TGI (HOP-62 NSCLC) | TGI (KM12 colon) | TGI (KM20L2 colon) | TGI (LOX IMVI melanoma) | TGI (LXFL 529 NSCLC) | TGI (M19-MEL melanoma) | TGI (OVCAR-5 ovarian) | TGI (RPMI-8226 leukemia) | TGI (SF-539 CNS) | TGI (TK-10 renal) | TGI (U251 CNS) | TGI (UACC-257 melanoma) | TGI (XF 498 CNS)
1 | CC1CN(c2ccc(Cl)cc2)CC(C)OC(=O)O1 (configuration not stated) | > 100 µM | > 100 µM | > 100 µM | > 100 µM | > 100 µM | > 100 µM | > 100 µM | > 100 µM | > 100 µM | > 100 µM | > 100 µM | > 100 µM | > 100 µM | > 100 µM | > 100 µM | > 100 µM | > 100 µM
2 | CCOC(=O)/C=C/n1c2ccccc2c(=O)c2ccccc21 | > 100 µM | > 100 µM | > 100 µM | > 100 µM | > 100 µM | > 100 µM | > 100 µM | > 100 µM | > 100 µM | > 100 µM | – | > 100 µM | > 100 µM | > 100 µM | > 100 µM | > 100 µM | > 100 µM
3 | N#C/C(c1nc2ccccc2[nH]1)=c1\s/c(=C/c2ccc(Cl)cc2)c(=O)n1-c1ccccc1 | > 100 µM | > 100 µM | > 100 µM | > 100 µM | > 100 µM | > 100 µM | > 100 µM | > 100 µM | > 100 µM | > 100 µM | > 100 µM | > 100 µM | > 100 µM | > 100 µM | > 100 µM | > 100 µM | > 100 µM
4 | O=c1ccn([C@@H]2C[C@@H]2CO)c(=O)[nH]1 | – | – | – | > 100 µM | > 100 µM | > 100 µM | – | > 100 µM | – | – | > 100 µM | > 100 µM | > 100 µM | > 100 µM | > 100 µM | > 100 µM | –
5 | O=C(NCCNCCCNC(=O)c1cc(-c2ccccc2)nc2ccccc12)c1cccc(O)c1O | – | – | – | > 100 µM | 15.9 µM | 76.6 µM | – | > 100 µM | – | – | 13.9 µM | 15.3 µM | 11.6 µM | 64.4 µM | 17.6 µM | 18.5 µM | –
6 | CN(C)C(=S)/N=c1\ssc(=S)n1Cc1cccnc1 | > 100 µM | 3.89 µM | > 100 µM | > 100 µM | > 100 µM | 36.2 µM | 4.27 µM | > 100 µM | > 100 µM | > 46.6 µM | > 100 µM | > 100 µM | > 100 µM | > 100 µM | > 94.9 µM | > 95.5 µM | 47.1 µM
7 | Brc1cc(CCOC2CCCCO2)c(-c2sccc2CCOC2CCCCO2)s1 (configuration not stated) | – | – | – | > 100 µM | > 100 µM | > 100 µM | – | > 71.2 µM | – | – | > 100 µM | > 100 µM | > 100 µM | > 100 µM | > 100 µM | > 100 µM | –
8 | CCn1c(SCC(=O)NNC(=S)Nc2ccc([N+](=O)[O-])cc2)nc2ccccc2c1=O | – | – | – | > 100 µM | > 100 µM | > 100 µM | – | > 100 µM | – | – | > 100 µM | > 100 µM | > 100 µM | > 100 µM | > 100 µM | > 100 µM | –
9 | O=C(CCc1ccc(O)c(O)c1)NCCc1cc(O)cc(O)c1 | – | – | – | > 100 µM | > 100 µM | > 100 µM | – | > 100 µM | – | – | > 100 µM | > 100 µM | > 100 µM | > 100 µM | > 100 µM | > 100 µM | –
10 | CC(C)CC(NC(=O)OC(C)(C)C)C(=O)Nc1ccc(Nc2nc(F)nc(-c3c4ccccc4c4n3CCS4)n2)cc1 (configuration not stated) | 36.8 µM | 37.5 µM | 30.6 µM | 37.8 µM | 37.2 µM | 51.1 µM | 32.3 µM | – | 35.2 µM | – | 44.7 µM | 58.6 µM | 37.7 µM | 57.5 µM | 33.3 µM | 48.3 µM | 42.3 µM
